Patent CN114306299A, “贝利司他在制备缓解和/或治疗缺血性脑卒中药物中的应用” (Institute of Materia Medica of CAMS and PUMC, priority 2020, dated 2022)

Columns and labels:
tumor cells (肿瘤细胞) = conditions: cited from earlier work
[1] = test system: certain transformed cells (某些转化细胞); conditions: in vitro, nanomolar concentration (<250nM); cited from earlier work
[2] = test system: histone deacetylase, HDAC (组蛋白去乙酰化酶, HDAC); conditions: in vitro; cited from earlier work
MCAO/R rats (MCAO/R大鼠) [3] = assay: TTC staining of cerebral infarct volume in MCAO/R rats, 24 h after reperfusion (1.2); format: in vivo, rat; conditions: i.p. at reperfusion; for cerebral infarct volume vs. model group: **P<0.01 vs. model group, n=7~11
[4] = treated subjects in clinical studies; cited from earlier work
MCAO/R rats (MCAO/R大鼠) [5] = assay: Survival rate of MCAO/R rats, 14-day dosing (2.2); format: in vivo, rat; conditions: treated groups (10, 30, 50 mg/kg); dosing from 24 h after reperfusion, once daily for 14 days; n=9~18; compared with model group (low survival)
MCAO/R rats (MCAO/R大鼠) [6] = assay: Neurological function score (mNSS) in MCAO/R rats 24 h after reperfusion (1.3); format: in vivo, rat; conditions: i.p. at reperfusion; for mNSS score vs. model group: **P<0.01 vs. model group, n=7~11
MCAO/R rats (MCAO/R大鼠) [7] = assay: Foot-fault test in MCAO/R rats, days 1, 3, 7, 14 (2.4); conditions: from day 7; treated groups (10, 30, 50 mg/kg), once daily for 14 days from 24 h after reperfusion; *P<0.05, **P<0.01 vs. model group; n=6~9
MCAO/R rats (MCAO/R大鼠) [8] = assay: Recovery of neurological function (mNSS) in MCAO/R rats, days 1, 3, 7, 14 (2.3)

## O=C(/C=C/c1cccc(S(=O)(=O)Nc2ccccc2)c1)NO [贝利司他]
Tumor cells (肿瘤细胞)
  cytotoxicity to tumor cells compared with normal cells: 强于正常细胞
[1]
  accumulation of acetylated histones and other proteins: 可致乙酰化组蛋白及其他蛋白积聚
  cell cycle arrest or apoptosis of certain transformed cells: 诱导细胞周期停滞或某些转化细胞凋亡
[2]
  concentration at which HDAC activity is inhibited: < 250 nM
MCAO/R rats (MCAO/R大鼠) [3]; dose group not named
  infarct volume vs. model group: 能够减少MCAO/R大鼠的梗死体积
MCAO/R rats (MCAO/R大鼠) [3]; high dose 50 mg/kg
  cerebral infarct volume vs. model group: 显著降低
MCAO/R rats (MCAO/R大鼠) [3]; medium dose 30 mg/kg
  cerebral infarct volume vs. model group: 显著降低
[4]
  most common side effects: 恶心、呕吐、乏力、发热和贫血
MCAO/R rats (MCAO/R大鼠) [5]
  survival rate: 明显增高
MCAO/R rats (MCAO/R大鼠) [6]; dose group not named
  neurological motor function score vs. model group: 显著降低
MCAO/R rats (MCAO/R大鼠) [6]; high dose 50 mg/kg
  mNSS score vs. model group: 显著低于模型组
MCAO/R rats (MCAO/R大鼠) [6]; medium dose 30 mg/kg
  mNSS score vs. model group: 显著低于模型组
MCAO/R rats (MCAO/R大鼠) [7]
  foot-fault rate vs. model group: 明显降低
MCAO/R rats (MCAO/R大鼠) [8]; from day 3, treated groups (10, 30, 50 mg/kg), once daily for 14 days from 24 h after reperfusion, *P<0.05, **P<0.01 vs. model group, n=6~9
  mNSS score vs. model group: 显著低于模型组
MCAO/R rats (MCAO/R大鼠) [8]; treated groups, with increasing time of administration (once daily for 14 days)
  neurological motor function: 神经运动功能恢复
